Laboratory results: US20130005733A1, “COMBINATION ANTI-CANCER THERAPY” (OSI Pharmaceuticals, LLC, priority 2010, published 2013)

How the values were obtained:
[1] = test system: pPRAS40 (T246) in MDAH2774; test: Western blot of phospho-PRAS40; assay type: cell-based, Human; conditions: 300 nM each agent, 2 hours
Protocol: (§1) Cell extracts were prepared by detergent lysis (50 mM Tris-HCl, pH 8.0, 150 mM NaCl, 1% NP-40, 0.5% sodium deoxycholate, 0.1% SDS, containing protease inhibitor (P8340, Sigma, St. Louis, Mo.) and phosphatase inhibitor (P5726, Sigma, St. Louis, Mo.) cocktails. The soluble protein concentration was determined by micro-BSA assay (Pierce, Rockford, Ill.). Pixel density was determined using AlphaEaseFC software (Alpha Innotech, San Leandro, Calif.). Protein immunodetection was performed by electrophoretic transfer of SDS-PAGE separated proteins to nitrocellulose, incubation with antibody, and chemiluminescent second step detection (PicoWest; Pierce, Rockford, Ill.). The antibodies included: 4E-BP1, p-4E-BP1(T37/46), PRAS40, and pPRAS40 ([…]). Antibodies were obtained from Cell Signaling Technology, Inc. (Danvers, Mass.). […] The media was removed, cells were washed two times with PBS, and cells were lysed as previously described.

H460 NSCLC xenograft = test: Tumor growth inhibition in vivo, xenograft; conditions: single agent
Protocol: Evaluation of tumor growth inhibition in vivo: Evaluation of tumor growth inhibition in vivo was conducted at OSI facilities with the approval of the Institutional Animal Care and Use Committee (IACUC) in an American Association for Accreditation of Laboratory Animal Care (AAALAC) accredited vivarium and in accordance with the Institute of Laboratory Animal Research (Guide for the Care and Use of Laboratory Animals, NIH, Bethesda, Md., USA). For this study, female athymic nude nu/nu CD-1 mice (6-8 wks, 20-28 g, Charles River Laboratories, Wilmington, Mass., USA) were allowed to acclimate for a minimum of one week prior to initiation of the study. To evaluate tumor growth inhibition, cells were harvested from cell culture flasks during exponential cell growth, washed twice with sterile PBS, counted and resuspended in PBS to a suitable concentration before subcutaneous implantation on the right flank of nu/nu CD-1 mice. Tumors were established to 200±50 mm^3 in size before randomization into treatment groups of 8 mice each. […]
where Tt=median tumor volume of treated at time t; T0=median tumor volume of treated at time 0; Ct=median tumor volume of control at time t; and C0=median tumor volume of control at time 0. The average TGI over the dosing period was then calculated and reported. […]

Ovcar-5 = test: Cell Titer Glo proliferation assay, ovarian cell line panel; assay type: cell-based, Human; conditions: Ovcar-5 (KRAS mutant), single agent, cell viability at 72 hours
Protocol: (§2) Cell lines: Human cancer cell lines were purchased from the American Type Culture Collection (ATCC). The cell lines Ovcar-3, MDAH2774, Caov3, lgrov-1, and MDA-MB-231 were grown in media as prescribed by the ATCC, containing 10% FCS. HNSCC 1483, HNSCC 1386, HNSCC 1186 were a gift from Memorial Sloan Kettering and were cultured in 1:1 DMEM: Hams F12 with 10% FCS. Ovcar-4, Ovcar-5, and Ovcar-8 were obtained from the NCI and were grown in RPMI with 10% FCS. Measurement of proliferation: Inhibition of proliferation was measured using the Cell Titer Glo Assay (Promega Corporation, Madison, WI). Cell lines were seeded at a density of 3000 cells per well in a 96-well plate. 24 hours after plating cells were dosed with varying concentrations of drug, either as a single agent or in combination. […] Inhibition of proliferation, relative to vehicle-treated controls was expressed as a fraction of 1 and graphed using PRISM® software (Graphpad Software, San Diego, Calif.). Analysis of Synergy: The Bliss additivism model was used to classify the effect of combining OSI-027 and OSI-906 as additive, synergistic or antagonistic. A theoretical curve was calculated for combined inhibition using the equation: Ebliss=EA+EB−EA*EB, where EA and EB are the fractional inhibitions obtained by drug A alone and drug B alone at specific concentrations. Here, Ebliss is the fractional inhibition that would be expected if the combination of the two drugs was exactly additive. If the experimentally measured fractional inhibition was less than Ebliss the combination was said to be synergistic. If the experimentally measured fractional inhibition was greater than Ebliss the combination was said to be antagonistic. For dose response curves, the bliss additivity was calculated for varying doses of drug A when combined with a constant dose of drug B. This allowed an assessment as to whether drug B affected the potency of drug A or shifted its intrinsic activity. All plots were generated using Graphpad Prism software.

Ovcar3 = test: as above; assay type: cell-based, Human; conditions: Ovcar3, single agent, cell viability at 72 hours
Protocol: as §2

MDAH2774 = test: as above; assay type: cell-based, Human; conditions: MDAH2774 (KRAS mutant), single agent, cell viability at 72 hours
Protocol: as §2

[2] = test system: IR phosphorylation in Ovcar-3 ovarian carcinoma cells; test: Phospho-RTK antibody array (Proteome Profiler); assay type: cell-based, Human; conditions: Ovcar-3 (KRAS wt); 3 uM each agent; relative to DMSO
Source text: (§3) Measurement of phosphorylated receptor tyrosine kinases: A commercially available membrane-based antibody array (Proteome Profiler Array, R&D Systems, Minneapolis, Minn.) was used to simultaneously co-immunoprecipitate 42 different receptor tyrosine kinases (RTKs) in duplicate and measure specific phospho-epitopes on each. The phospho-epitopes were detected by chemiluminescence, quantitated based on pixel density for each pair of spots and expressed relative to vehicle-treated controls. Pixel density was determined using AlphaEaseFC software (Alpha Innotech, San Leandro, Calif.).

[3] = test system: IGF-1R phosphorylation in MDAH2774 ovarian carcinoma cells; test: Phospho-RTK antibody array (Proteome Profiler); assay type: cell-based, Human; conditions: MDAH2774 (KRAS mutant); 3 uM each agent; 2 hour treatment
Source text: as §3

[4] = test system: IR phosphorylation in MDAH2774 ovarian carcinoma cells; test: Phospho-RTK antibody array (Proteome Profiler); assay type: cell-based, Human; conditions: MDAH2774 (KRAS mutant); 3 uM each agent; 2 hour treatment
Source text: as §3

Igrov1 = test: Cell Titer Glo proliferation assay, ovarian cell line panel; assay type: cell-based, Human; conditions: Igrov1, single agent, cell viability at 72 hours
Protocol: Cell lines: Human cancer cell lines were purchased from the American Type Culture Collection (ATCC). The cell lines Ovcar-3, MDAH2774, Caov3, lgrov-1, and MDA-MB-231 were grown in media as prescribed by the ATCC, containing 10% FCS. HNSCC 1483, HNSCC 1386, HNSCC 1186 were a gift from Memorial Sloan Kettering and were cultured in 1:1 DMEM: Hams F12 with 10% FCS. Ovcar-4, Ovcar-5, and Ovcar-8 were obtained from the NCI and were grown in RPMI with 10% FCS. Measurement of proliferation: Inhibition of proliferation was measured using the Cell Titer Glo Assay (Promega Corporation, Madison, WI). Cell lines were seeded at a density of 3000 cells per well in a 96-well plate. 24 hours after plating cells were dosed with varying concentrations of drug, either as a single agent or in combination. […] Inhibition of proliferation, relative to vehicle-treated controls was expressed as a fraction of 1 and graphed using PRISM® software (Graphpad Software, San Diego, Calif.).

p-4E-BP1(T37/46) = test: Western blot of phospho-4E-BP1; assay type: cell-based, Human; conditions: 300 nM each agent; 2 hours
Protocol: as §1

[5] = test system: IGF-1R phosphorylation in H460 lung carcinoma cells; test: Phospho-RTK antibody array (Proteome Profiler); assay type: cell-based, Human; conditions: 3 uM, relative to DMSO
Source text: as §3

Ovcar-5 cells = test: Caspase 3/7 Glo apoptosis assay; assay type: cell-based, Human; conditions: 48 hrs after treatment, OSI-027 varying doses alone or with 5 uM OSI-906
Protocol: Measurement of apoptosis: […] Cell lines were seeded at a density of 3000 cells per well in a 96-well plate. 24 hours after plating cells were dosed with varying concentrations of drug, either as a single agent or in combination. […] The caspase 3/7 activity was normalized to cell number per well, using a parallel plate treated with Cell Titer Glo (Promega Corporation, Madison, WI). Signal for each well was normalized using the following formula: Caspase 3/7 Glo luminescence units/Cell Titer Glo fraction of DMSO control. All graphs were generated using PRISM® software (Graphpad Software, San Diego, Calif.). […] A theoretical curve was calculated for combined inhibition using the equation: Ebliss=EA+EB−EA*EB, where EA and EB are the fractional inhibitions obtained by drug A alone and drug B alone at specific concentrations. […] If the experimentally measured fractional inhibition was less than Ebliss the combination was said to be synergistic. If the experimentally measured fractional inhibition was greater than Ebliss the combination was said to be antagonistic. For dose response curves, the bliss additivity was calculated for varying doses of drug A when combined with a constant dose of drug B. This allowed an assessment as to whether drug B affected the potency of drug A or shifted its intrinsic activity. […]

| Structure (SMILES) | inhibition of phosphor-PRAS40 [1] | tumor growth inhibition (TGI) (H460 NSCLC xenograft; OSI-906 60 mg/kg once-daily for 14 days) [%] | sensitivity of cell line (inhibition of proliferation) (Ovcar-5) | sensitivity of cell line (inhibition of proliferation) (Ovcar3) | sensitivity of cell line (inhibition of proliferation) (MDAH2774) | phosphorylation of IR [2] | phosphorylation of IGF-1R [3] | phosphorylation of IR [4] | sensitivity of cell line (inhibition of proliferation) (Igrov1) | phosphorylation of 4E-BP1 (p-4E-BP1(T37/46)) | phosphorylation of IGF-1R [5] | induction of apoptosis (caspase 3/7 activity) (Ovcar-5 cells) | tumor growth inhibition (TGI) (H460 NSCLC xenograft; OSI-027 50 mg/kg oral daily for 14 days) [%] |
| --- | --- | --- | --- | --- | --- | --- | --- | --- | --- | --- | --- | --- | --- |
| C[C@]1(O)C[C@@H](c2nc(-c3ccc4ccc(-c5ccccc5)nc4c3)c3c(N)nccn32)C1 [OSI-906, cis-3-[8-amino-1-(2-phenylquinolin-7-yl)-imidazo[1,5-a]pyrazin-3-yl]-1-methylcyclobutanol] | inhibits phosphor-PRAS40 to a greater degree | 69 | most sensitive | among the least sensitive | most sensitive | fully attenuates phosphor-IR, below the basal level | reduced | reduced | among the least sensitive | No significant decrease |  |  |  |
| Nc1nccn2c1c(-c1cc3cccc(Cl)c3[nH]1)nc2[C@H]1CC[C@H](C(=O)O)CC1 [OXA-01] |  |  |  |  |  |  |  |  |  |  | increases p-IGF-1R to a greater degree than erlotinib |  |  |
| C#Cc1cccc(Nc2ncnc3cc(OCCOC)c(OCCOC)cc23)c1 [erlotinib, reference compound] |  |  |  |  |  |  |  |  |  |  | hyperphosphorylation of IGF-1R |  |  |
| COc1cccc2cc(-c3nc([C@H]4CC[C@H](C(=O)O)CC4)n4ncnc(N)c34)[nH]c12 [OSI-027, trans-4-[4-amino-5-(7-methoxy-1H-indol-2-yl)imidazo[5,1-f][1,2,4]triazin-7-yl]cyclohexanecarboxylic acid] | partial inhibition |  | relatively insensitive | most sensitive | relatively insensitive | hyperphosphorylated | increased | increased | most sensitive | reduced | hyperphosphorylation of IGF-1R | did not significantly induce apoptosis | 66 |
